Source: paper PMC5268438, “Crystal Structure and Functional Characterization of an Esterase (EaEST) from Exiguobacterium antarcticum” (PLoS ONE, 2017)

Tests used:
EaEST = biological target: T1, EaEST (Exiguobacterium antarcticum, UniProt A0ABF7PFX0); assay: X-ray crystal structure, […] Å; type: binding; settings: crystals from 0.2 M ammonium acetate, pH 7.5, no ligand added; active site, ligand assigned from electron density
T1 construct: gene Eab7_1456; recombinant from pET-21a in E. coli BL21(DE3), purified on His-Trap Ni-NTA, no tag removal told; two protomers in the asymmetric unit (542 residues modelled); catalytic triad Ser96, Asp220, His248
T1 sequence (A0ABF7PFX0 1-272): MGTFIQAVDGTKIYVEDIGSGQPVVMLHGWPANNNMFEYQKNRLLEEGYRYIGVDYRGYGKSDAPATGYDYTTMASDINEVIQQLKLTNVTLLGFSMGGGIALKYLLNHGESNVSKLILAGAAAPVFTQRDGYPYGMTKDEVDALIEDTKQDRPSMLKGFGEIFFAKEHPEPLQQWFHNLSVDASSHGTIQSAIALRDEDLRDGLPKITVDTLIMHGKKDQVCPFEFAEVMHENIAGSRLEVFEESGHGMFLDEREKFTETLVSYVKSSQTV

[1] = biological target: esterase (EaEST) from Exiguobacterium antarcticum B7 (Exiguobacterium antarcticum B7); assay: AUC; sedimentation velocity, 20°C, 2 mg/ml EaEST in 25 mM Tris-HCl pH 8.0, 200 mM NaCl, 5 mM MgCl2, 2 mM DTT; 45,000 rpm; c(s) with SEDFIT

stoichiometry N [1]	Compound	X-ray crystal structure, 1.90 Å (EaEST)
	CC(=O)OO [peracetate]	the peracetate molecule was perfectly fitted into the electron-density map
3	esterase (EaEST) from Exiguobacterium antarcticum B7 (enzyme)	
